Test results published in patent US7387779B2, “Anti-angiogenic proteins and fragments and methods of use thereof” (Beth Israel Deaconess Medical Center, priority 1998, dated 2008).

Columns and labels:
PC3 tumor xenografts = assay: PC3 human prostate tumor xenograft (Example 58); type: in vivo, nude NCRNU mice; settings: 5.0 mg/kg i.p. daily, 3 weeks; for Final Tumor Weight (V/Vo) ± SEM: T7 vehicle 5.626 ± 0.38, T8 vehicle 6.278 ± 1.483
Description: Male nude NCRNU mice, 5-6 weeks old, weighing approximately 25 grams, 6 were implanted with 2×10^6 PC3 cells into the dorsal subcutis. When the tumors were 60 mm^3, the animals were pair-matched into treatment and control groups. Each group contained 6-7 tumored mice, each of which was ear-tagged and followed individually throughout the experiment. Initial doses of peptide or vehicle control were given on the day of pair-matching (Day 0), and were administered via intraperitoneal (i.p.) injection at doses indicated. Mice were weighed weekly, and tumor measurements were taken by calipers weekly. These tumor measurements were converted to tumor volume by a well-known formula, (V=W^2×L/2), and mean tumor volumes were plotted against time. Mice were euthenized at the end of the treatment period. Upon termination, the mice were weighed, sacrificed and their tumors were excised. The mean tumor weight per group was calculated, and the value of mean treated tumor volume or volume ratio/mean control tumor volume or volume ratio×100 was subtracted from 100% to give the tumor growth inhibition (TG1) for each group. All groups received injections I.P. daily, except for two T8-treated groups, which were treated twice per week and once a week, respectively.

C-PAE cells [1] = assay: Cell attachment assay; type: cell-based, bovine; settings: for attachment of endothelial cells onto vitronectin-coated plates in the presence of peptide: 5 μg/ml
Description: (§1) The attachment of HUVECs to Tumstatin-coated plates in the presence of integrin subunits α1 through α6, β1, and αvβ3 integrin blocking antibody was examined. This assay was performed according to the method of Senger et al. (Senger, D. R. et al, 1997, Proc. Natl. Acad. Sci. USA 94:13612-7), with minor modification. 96-well plates were coated with either human Tumstatin, mouse laminin-1, or human Type IV collagen (Collaborative Biomedical Prods., Bedford, Mass., USA) at a concentration of 10 μg/ml overnight at 37° C. Vitronectin (Collaborative Biomed. Prods.) at a concentration of 0.5 μg/ml was then used to coat the plates. The remaining protein binding sites were blocked with 100 mg/ml of BSA (Sigma Chemical Co., St. Louis, Mo., USA) in PBS for 2 hours. HUVEC cells were grown to subconfluence (70-80%) in EGM-2 medium, gently trypsinized and resuspended in serum-free medium (1.5×10^5 cells/ml). The cells were mixed with 10 μg/ml of either mouse IgG, (control) (Life Technologies/Gibco BRL, Gaithersberg, Md., USA) or antibody (mouse monoclonal antibody to the human β1 integrin (clone P4C10) (Life Technologies/Gibco BRL); monoclonal antibody to human integrins α1 through α.6 (CHEMICON Int'l, Temecula, Calif., USA); αvβ3 integrin (clone LM609) (CHEMICON Int'l) and incubated for 15 minutes at room temperature, with gentle agitation. One hundred microliters of the cell suspension was then added to each well and incubated for 45 minutes at 37° C. Unattached cells were removed by washing, and the number of attached cells were counted after staining with methylene blue. C-PAE cells were used in separate experiments, following the above procedure.
To determine the attachment of C-PAE cells to plates coated with the Tumstatin deletion mutants, the cell attachment assay was performed as described above (see, e.g., Example 28). Rabbit antibody raised against Tum-4 was prepared as previously described (Kalluri et al., 1997, J. Clin. Invest. 99:2470-8). Goat anti-rabbit IgG antibody conjugated with horseradish peroxidase was purchased from Sigma Chemical Company (St. Louis, Mo., USA). […] Plates coated with Tum-1 (FIG. 36A) were also treated with anti-Tum-4 antibody (1:200 dilution) to block the previously reported (Shahan et al, 1999, Cancer Res. 59:4584-90) αvβ3 binding site, as well as the αvβ5 binding site.
(§2) Cell Attachment Activity: Cell attachment using endothelial cells was performed as described above. HUVEC or C-PAE cells were incubated with monoclonal anti-human integrin antibodies, control mouse IgG (10 μg/ml), or synthetic peptide, plated onto pre-coated 96-well plates, and the number of cells attaching to the plates was determined using measurement of methylene blue staining at OD655. […] CNGRC peptide was used as a control.
(§3) The cell attachment assay was performed as described above.
Tumstatin produced in 293 human embryonic kidney cells was used to coat tissue culture plates. […] PBS and BSA served as positive and negative controls, respectively.

C-PAE cells [2] = assay: Endothelial cell proliferation, methylene blue staining; type: cell-based, bovine; settings: for inhibition of endothelial cell proliferation by synthetic peptides: 10 μg/ml, 20% FCS
Description: A methylene blue staining test was also done. 3,100 cells were added to each well and treated as above, and cells were then counted using the method of Oliver et al. (Oliver, M. H. et al., 1989, J. Cell. Science 92:513-18). All wells were washed one time with […] of 1×PBS and the cells were fixed by adding […] of 10% formalin in neutral-buffered saline (Sigma Chemical Co., St. Louis, Mo., USA) for 30 minutes at room temperature. After formalin removal cells were stained with a solution of 1% methylene blue (Sigma Chemical Co.) in 0.01 M borate buffer (pH 8.5) for 30 minutes at room temperature. After removal of staining solution, the wells were washed 5 times with […] of 0.01 M borate buffer (pH 8.5). Methylene blue was extracted from the cells with […] of 0.1N HCi/ethanol (1:1 mixture) for 1 hour at room temperature. The amount of methylene blue staining was measured on a microplate reader (BioRad, Hercules, Calif., USA) using light absorbance at 655 nm wavelength.
In the methylene-blue staining method, 7000 cells were plated into each well of a 96-well plate, and treated as described above. Cells were then counted using the method of Oliver et al. (1989, J. Cell. Sci. 92:513-8). After 48 hours of treatment, all wells were washed with 100 μl of PBS, and the cells fixed with 10% formalin in neutral-buffered saline (Sigma Chemical Co., St. Louis, Mo., USA). The cells were then stained with 1% methylene blue (Sigma) in 0.01M borate buffer, pH 8.5. Wells were washed with 0.01M borate buffer, and the methylene blue extracted from the cells with 0.1N HCl/ethanol, and the absorbance measured in a microplate reader (Bio-Rad, Hercules, Calif., USA) at 655 nm. Polymyxin B (Sigma) at a final concentration of 5 μg/ml was used to inactivate endotoxin (Liu, S. et al., 1997, Clin. Biochem. 30:455-63).
Proliferation of endothelial cells (C-PAE cells) and WM-164 melanoma cells was assayed by methylene blue staining, as described above in Examples 25 and 34. The results are shown in FIGS. 33A and 33B, which are a pair of graphs showing the effect of increasing concentration (x-axis) of Tumstatin, Tum-1, Tum-2, Tum-3 and Tum-4 on the relative number (y-axis) of C-PAE cells (FIG. 33A) and WM-164 cells (FIG. 33B). […] Tum-4, however, did have anti-proliferative activity in this cell line. […] Only Tum-4 inhibited WM-164 melanoma cells.
For the proliferation assay, Canstatin, Can-1 and Can-2 soluble proteins (0.1-20.0 μg/ml) were added to the growth medium of proliferating C-PAE cells, which were stimulated with 10% FBS in DMEM, in addition to 5 ng/ml bFGF and 3 ng/ml VEGF. The results are shown in FIG. 40, which is a graph showing the effect of increasing concentrations of Canstatin (♦), Can-1 (▪) and Can-2 (▴) (x-axis) on the relative cell number (y-axis) of C-PAE cells. Each concentration of each protein was tested in quadruplicate. Bovine serum albumin (BSA) was used as a control treatment. Polymyxin B was used to control for endotoxin interference, and no differences were found between assays run with and without polymyxin B added to the medium. Cells were allowed to proliferate for 48 hours, and were then fixed, stained and the density read with a Bio-Rad plate reader (Bio-Rad, Hercules, Calif., USA). Canstatin and Can-1 both caused dose-dependent decreases in the percent cell number, and both reduced the number of cells by 80% at concentrations of 5 μg/ml and higher.
An endothelial cell proliferation assay was used to compare the activity of Tumstatin and some of the deletion mutants. Recombinant Tumstatin (28 kDa), Tumstatin-44-131 (12 kDa) and T3 peptide were used in a methylene blue proliferation assay in equimolar concentrations.

HUVEC cells = assay: Cell adhesion assay with integrin blocking antibodies; type: cell-based, human; settings: label = plate coating; 10 μg/ml antibody
Description: as §1, §2, §3

C-PAE cells [3] = assay: Cell cycle analysis (propidium iodide, flow cytometry); type: cell-based, bovine
Description: To further evaluate the mechanism of T3 peptide on endothelial cell proliferation, the effect of T3 peptide on cell cycle progression was analyzed. In the growth arrested and contact inhibited cells (0 hour), 4.1% of cells were in S phase. […] This was true even at a maximal dosage of 100 μg/ml. The effect of the T3 peptide was dose-dependent, however, with the percentage of cells in S phase at 21.4% at 10 μg/ml, and 20.5% at 25 μg/ml. The percentage of cells in G0/G1 phase was 88.3% at 0 hour, 53.4% for the bFGF control, and 57.6%, 57.6% and 71.0% for treatments with T1, T6 and T3 peptide, respectively. […] Apoptotic Activity: Peptides T2, T3, T4, T5 and T6 (10 μg/ml concentration) were tested for their effect of viability of C-PAE cells using the MTT assay, as described in Examples 32 and 36 above. The results are shown in FIG. 43D, which is a histogram showing cell viability as measured at OD595 (y-axis), and treatments with the synthetic peptides (x-axis). […] TNF-α (100 ng/ml) was used to serve as a positive control in inducing endothelial cell apoptosis.
The effect of Tumstatin-44-131 and Tum-5-125-C-A on the cell cycle were assayed similarly to Example 4 above. Briefly, C-PAE cells were growth arrested by contact inhibition for 48 hours. The cells, at 10^5 cells per well, were then harvested and plated into a 12-well plate coated with fibronectin in 5% FCS and either recombinant Tumstatin-44-131 or Tum-5-125-C-A. After 21 hours, the cells were harvested and fixed in 70% ice-cold ethanol. The fixed cells were rehydrated a room temperature for 30 minutes in PBS containing 2% FCS and 0.1% Tween-20, centrifuged and resuspended in 0.5 ml of the same buffer. RNase (5 μg/ml) digestion was done at 37° C. for one hour, followed by staining with propidium iodide (5 μg/ml). The cells were then counted using an EPICS XL-MCL flow cytometer (Beckman-Coulter Instruments, Fullerton, Calif., USA).

What does the source list for “ANMSRNVFFDCTSFPVCQKFLNDTRNY (Scrambled peptide SP1) [reference compound]”?
% Tumor growth inhibition (PC3 tumor xenografts): 31.7%; Final Tumor Weight (V/Vo) ± SEM (PC3 tumor xenografts): 4.284 ± 1.244

Which “attachment of endothelial cells onto vitronectin-coated plates in the presence of peptide” value (C-PAE cells [1]) does the source give for “CDCRGDCFC (synthetic blocking peptide) [reference compound]” here?
Its value is “inhibited attachment”.

Which EC50 (C-PAE cells [2]; equimolar comparison, read-out: ED50, anti-proliferative effect) does the source give for TMPFLFCNVNDVCNFASRNDYSYWL [T7] here?
Its EC50 is 1000 nM.

And the “% Tumor growth inhibition” value (PC3 tumor xenografts)?
Its value is 66.8%.

What about the “Final Tumor Weight (V/Vo) ± SEM” value (PC3 tumor xenografts) of the same molecule?
The value was 1.868 ± 0755.

“laminin-1: mouse laminin-1, control plate coating [reference compound]” was tested. Which “inhibition of HUVEC attachment to coated plates by α5 antibody” value (HUVEC cells) did it give?
Its value is 50%.

And the “inhibition of HUVEC attachment to coated plates by α6 antibody” value (HUVEC cells)?
Its value is 89%.

With “NQRAHGQDLGTLGSCLQRFT (T2 (amino acids 53-72 of SEQ ID NO10))” as the molecule, how does the “inhibition of endothelial cell proliferation by synthetic peptides” value (C-PAE cells [2]) read?
The value was “nor did it inhibit endothelial cell proliferation”.

“DVCNFASRNDYSYWLSTPAL (T4 (amino acids 83-102 of SEQ ID NO10))” was tested. Which “inhibition of endothelial cell proliferation by synthetic peptides” value (C-PAE cells [2]) did it give?
The value was “no inhibitory activity”.

Which “attachment of endothelial cells onto vitronectin-coated plates in the presence of peptide” value (C-PAE cells [1]) does the source give for “CNGRC (synthetic blocking peptide) [reference compound]” here?
The value was “did not show such inhibition”.

“RALEPYISRCTVCEGPAIA (T6 (amino acids 113-131 of SEQ ID NO10))” was tested. Which “binding to vitronectin-coated plates (2.5 μg/ml) in the presence of peptide” value (C-PAE cells [1]; 0.1, 1.0, 10.0 μg/ml peptide) did it give?
The value was “did not inhibit attachment”.

And the “percentage of cells in S phase” value (C-PAE cells [3]; bFGF 24 hours (control 22.1%), T1 or T6, maximal dosage of 100 μg/ml)?
The value was 21.2%.

What about the “percentage of cells in G0/G1 phase” value (C-PAE cells [3]; bFGF control 53.4%) of the same molecule?
The value was 57.6%.

B1: vitronectin: control plate coating (protein)
chain: DQESCKGRCTEGFNVDKKCQCDELCSYYQSCCTDYTAECKPQVTRGDVFTMPEDEYTVYDDGEEKNNATVHEQVGGPSLTSDLQAQSKGNPEQTPVLKPEEEAPAPEVGASKPEGIDSRPETLHPGRPQPPAEEELCSGKPFDAFTDLKNGSLFAFRGQYCYELDEKAVRPGYPKLIRDVWGIEGPIDAAFTRINCQGKTYLFKGSQYWRFEDGVLDPDYPRNISDGFDGIPDNVDAALALPAHSYSGRERVYFFKGKQYWEYQFQHQPSQEECEGSSLSAVFEHFAMMQRDSWEDIFELLFWGRTSAGTRQPQFISRDWHGVPGQVDAAMAGRIYISGMAPRPSLAKKQRFRHRNRKGYRSQRGHSRGRNQNSRRPSRATWLSLFSSEESNLGANNYDDYRMDWLVPATCEPIQSVFFFSGDKYYRVNLRTRRVDTVDPPYPRSIAQYWLGCPAPGHL
With B1 as the molecule, how does the “inhibition of HUVEC attachment to coated plates by αvβ3 antibody” value (HUVEC cells) read?
Its value is 61%.

B2: Tum-5: residues 54 to 132 of Tumstatin (SEQ ID NO:26) (protein)
chain: QRAHGQDLGTLGSCLQRFTTMPFLFCNVNDVCNFASRNDYSYWLSTPALMPMNMAPITGRALEPYISRCTVCEGPAIAI
modifications: Tum-5 (amino acids 54-132 of SEQ ID NO10)
How did the “inhibition of HUVEC attachment to coated plates by αvβ3 antibody” value (HUVEC cells) turn out when B2 was run?
Its value is “significantly inhibited”.

What about the “attachment to coated plates in the presence of RGD peptide ([…])” value (C-PAE cells [1]; label = plate coating) of the same molecule?
The value was “not inhibited”.
